# Source: patent US11013723B1, “Solid forms of a thiazolidinone compound, compositions and methods of use thereof” (Celgene Corporation, priority 2018, dated 2021)
# Peptide text beside a SMILES is read from it.
# Test: Slurry ripening comparative co-crystal screening (solid form outcome)
# Type: physicochemical
# Conditions: Compound 1 + coformer, cycled 25° C./5° C., 10 days; for Slurry ripening result, EtOAc: EtOAc saturated with coformer; for Slurry ripening result, MTBE: MTBE saturated with coformer; for Slurry ripening result, EtOH: EtOH saturated with coformer
# Method: In certain embodiments, for example, the method may comprise slurry ripening. […] In certain embodiments, the solvent is 1-butanol or toluene.
# In certain embodiments, for example, the saturated coformer solution may be prepared by 1) combining the quantity of coformer in a quantity (for example, about 2 mL) of solvent; 2) mixing the combined quantities at a predetermined temperature (for example 23° C.) for a predetermined period of time (for example at least about 16 hours or less than about 16 hours) to form a suspension; and 3) filtering the suspension (for example filtering the suspension through an 0.2 micron PTFE filter if the solvent is an organic solvent or an 0.45 micron filter if the solvent is an organic solvent mixed with water). In certain embodiments, for example, the solvent may be selected from the group consisting of ethyl alcohol, a solution of ethyl acetate and heptane (for example a solution having an ethyl acetate to heptane at ratio of 2:8 v/v), a solution of acetonitrile and water (for example a solution having a acetonitrile to water ratio of 1:9 v/v), and t-butyl methyl ether (MTBE), or a combination of two or more of the foregoing.
# A series of comparative crystallization experiments were conducted with 41 potential coformers and 7 solvents by two different methods.
Molecule,"Slurry ripening result, EtOAc","Slurry ripening result, MTBE","Slurry ripening result, EtOH",other results
O=C(O)[C@H](O)[C@@H](O)C(=O)O [(+)-L-Tartaric acid],F*,,,
O=C(O)CC(=O)O [Malonic acid],,,,"Slurry ripening result, Toluene (Toluene saturated with coformer): F*"
CC1(C(=O)O)CCC(C(=O)O)C1(C)C (stereo not drawn) [(+)-Camphoric acid],,PCH,,
O=C(O)c1ccc2ccccc2c1O [1-Hydroxy-2-Naphthoic acid],PCH,A*,,
NC(=O)c1ccncc1 [Isonicotinamide],,,B*,
O=C(O)[C@@H](O)c1ccccc1 [L-(+)-Mandelic acid],,PCH,,
Oc1cccc(O)c1O [Pyrogallol],,PCH,,
NC(=O)c1cccnc1 [Nicotinamide],,,PCH,
(−)-L-Malic acid,PCH,,PCH,
NC(N)=O [Urea],,PCH,,
COC(=O)[C@H](Cc1ccccc1)NC(=O)[C@@H](N)CC(=O)O [Aspartame] (H-Asp-Phe-OMe),A + F,,,
O=c1c(O)c(-c2ccc(O)c(O)c2)oc2cc(O)cc(O)c12 [Quercetin],,,PCH,
